Assays:
purple nutsedge = experiment: Test B pre/postemergence purple nutsedge; type: in vivo, Cyperus rotundus; conditions: for Nutsedge plant response rating: Rate 125 g/ha, scale 0 to 10, 0 is no effect, 10 is complete control
Procedure, shortened: (§1)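 Test chemicals in a non-phytotoxic solvent mixture with surfactant were sprayed preemergence onto planted seeds and postemergence onto plants 2 to 18 cm tall (1- to 4-leaf stage). After twelve to sixteen days in a greenhouse, injury was visually rated against untreated controls from 0 (no effect) to 10 (complete control).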

blackgrass = experiment: Test B pre/postemergence blackgrass; type: in vivo, Alopecurus myosuroides
Procedure, shortened: as §1

rape = experiment: Test B pre/postemergence rape; type: in vivo, Brassica napus
Procedure, shortened: as §1

velvetleaf = experiment: Test B pre/postemergence velvetleaf; type: in vivo, Abutilon theophrasti; conditions: for Plant response rating, Velvetleaf: Postemergence
Procedure, shortened: as §1

crabgrass = experiment: Test B pre/postemergence crabgrass; type: in vivo, Digitaria sanguinalis
Procedure, shortened: as §1

wheat = experiment: Test B pre/postemergence wheat; type: in vivo, Triticum aestivum; conditions: for Plant response rating, Wheat: Postemergence
Procedure, shortened: as §1

surinam grass = experiment: Test B pre/postemergence surinam grass; type: in vivo, Brachiaria decumbens; conditions: for Plant response rating, B. signalgrass: scale of 0 to 10 where 0 is no effect and 10 is complete control
Procedure, shortened: as §1

pigweed = experiment: Test B pre/postemergence pigweed; type: in vivo, Amaranthus retroflexus; conditions: for Plant response rating, Redroot pigweed: Postemergence
Procedure, shortened: as §1

soybean = experiment: Test B pre/postemergence soybean; type: in vivo, Glycine max; conditions: for Plant response rating, Soybean: Postemergence
Procedure, shortened: as §1

sugar beet = experiment: Test B pre/postemergence sugar beet; type: in vivo, Beta vulgaris
Procedure, shortened: as §1

giant foxtail = experiment: Test B pre/postemergence giant foxtail; type: in vivo, Setaria faberii
Procedure, shortened: as §1

cocklebur = experiment: Test B pre/postemergence cocklebur; type: in vivo, Xanthium strumarium
Procedure, shortened: as §1

morningglory = experiment: Test B pre/postemergence morningglory; type: in vivo, Ipomoea hederacea
Procedure, shortened: as §1

bedstraw = experiment: Test B pre/postemergence bedstraw; type: in vivo, Galium aparine; conditions: Preemergence
Procedure, shortened: as §1

wild oat = experiment: Test B pre/postemergence wild oat; type: in vivo, Avena fatua; conditions: for Plant response rating, Wild oats: Postemergence
Procedure, shortened: as §1

corn = experiment: Test B pre/postemergence corn; type: in vivo, Zea mays
Procedure, shortened: as §1

[1] = Rate 250 g/ha, Postemergence, scale of 0 to 10 where 0 is no effect and 10 is complete control
[2] = Postemergence, Rate 62 g/ha, scale of 0 to 10, 0 is no effect, 10 is complete control
[3] = Postemergence, Rate 125 g/ha, scale 0 to 10, 0 is no effect, 10 is complete control
[4] = Postemergence, Rate 500 g/ha, scale of 0 to 10 where 0 is no effect and 10 is complete control
[5] = Preemergence, Rate 62 g/ha, scale 0 to 10 (0 no effect, 10 complete control)
[6] = Preemergence, Rate 125 g/ha, scale 0 to 10, 0 is no effect, 10 is complete control
[7] = Preemergence, Rate 500 g/ha, scale of 0 to 10 where 0 is no effect and 10 is complete control
[8] = Rate 500 g/ha, scale of 0 to 10 where 0 is no effect and 10 is complete control
[9] = Rate 250 g/ha, scale of 0 to 10 where 0 is no effect and 10 is complete control

## C=CCCCn1c(=O)on(C(=O)N(c2ccccc2)C(C)C)c1=O [Compound 575]
Purple nutsedge; Postemergence
  Nutsedge plant response rating: 0
Purple nutsedge; Preemergence
  Nutsedge plant response rating: 0
Purple nutsedge; Preemergence, Rate 250 g/ha
  Nutsedge plant response rating (0 to 10 scale): 0
Purple nutsedge; [1]
  Plant response rating, Nutsedge: 0
blackgrass; [2]
  Blackgrass plant response rating: 0
blackgrass; [3]
  Blackgrass plant response rating: 0
blackgrass; [4]
  Plant response rating, Blackgrass: 3
blackgrass; [5]
  Blackgrass plant response rating: 2
blackgrass; [6]
  Blackgrass plant response rating: 6
blackgrass; Preemergence, Rate 250 g/ha
  Blackgrass plant response rating (0 to 10 scale): 7
blackgrass; [7]
  Blackgrass plant response rating: 2
blackgrass; [1]
  Plant response rating, Blackgrass: 0
rape; [2]
  Rape plant response rating: 0
rape; [3]
  Rape plant response rating: 0
rape; [4]
  Plant response rating, Rape: 3
rape; [5]
  Rape plant response rating: 0
rape; [6]
  Rape plant response rating: 2
rape; Preemergence, Rate 250 g/ha
  Rape plant response rating (0 to 10 scale): 2
rape; [7]
  Rape plant response rating: 2
rape; [1]
  Plant response rating, Rape: 3
velvetleaf; [8]
  Plant response rating, Velvetleaf: 3
velvetleaf; [5]
  Velvetleaf plant response rating: 0
velvetleaf; [6]
  Velvetleaf plant response rating: 0
velvetleaf; Preemergence, Rate 250 g/ha
  Velvetleaf plant response rating (0 to 10 scale): 0
velvetleaf; [7]
  Velvetleaf plant response rating: 2
velvetleaf; [9]
  Plant response rating, Velvetleaf: 2
crabgrass; [2]
  Crabgrass plant response rating: 0
crabgrass; [3]
  Crabgrass plant response rating: 2
crabgrass; [4]
  Plant response rating, Crabgrass: 9
crabgrass; [5]
  Crabgrass plant response rating: 8
crabgrass; [6]
  Crabgrass plant response rating: 9
crabgrass; Preemergence, Rate 250 g/ha
  Crabgrass plant response rating (0 to 10 scale): 9
crabgrass; [7]
  Crabgrass plant response rating: 9
crabgrass; [1]
  Plant response rating, Crabgrass: 9
wheat; [8]
  Plant response rating, Wheat: 2
wheat; [5]
  Wheat plant response rating: 0
wheat; [6]
  Wheat plant response rating: 0
wheat; Preemergence, Rate 250 g/ha
  Wheat plant response rating (0 to 10 scale): 0
wheat; [7]
  Wheat plant response rating: 0
wheat; [9]
  Plant response rating, Wheat: 0
Surinam grass; [2]
  B. signalgrass plant response rating: 0
Surinam grass; [3]
  B. signalgrass plant response rating: 0
Surinam grass; Postemergence, Rate 500 g/ha
  Plant response rating, B. signalgrass: 3
Surinam grass; [5]
  B. signalgrass plant response rating: 6
Surinam grass; [6]
  B. signalgrass plant response rating: 9
Surinam grass; Preemergence, Rate 250 g/ha
  B. signalgrass plant response rating (0 to 10 scale, 0 is no effect, 10 is complete control): 10
Surinam grass; Rate 250 g/ha, Postemergence
  Plant response rating, B. signalgrass: 0
pigweed; [8]
  Plant response rating, Redroot pigweed: 7
pigweed; [5]
  Redroot pigweed plant response rating: 9
pigweed; [6]
  Redroot pigweed plant response rating: 9
pigweed; Preemergence, Rate 250 g/ha
  Redroot pigweed plant response rating (0 to 10 scale): 10
pigweed; [7]
  Redroot pigweed plant response rating: 10
pigweed; [9]
  Plant response rating, Redroot pigweed: 4
soybean; [8]
  Plant response rating, Soybean: 6
soybean; [5]
  Soybean plant response rating: 0
soybean; [6]
  Soybean plant response rating: 0
soybean; Preemergence, Rate 250 g/ha
  Soybean plant response rating (0 to 10 scale): 0
soybean; [7]
  Soybean plant response rating: 0
soybean; [9]
  Plant response rating, Soybean: 5
Sugar beet; [4]
  Plant response rating, Sugarbeets: 2
Sugar beet; [5]
  Sugarbeets plant response rating: 0
Sugar beet; [6]
  Sugarbeets plant response rating: 0
Sugar beet; Preemergence, Rate 250 g/ha
  Sugarbeets plant response rating (0 to 10 scale): 0
Sugar beet; [7]
  Sugarbeets plant response rating: 2
Giant foxtail; [3]
  Giant foxtail plant response rating: 2
Giant foxtail; [5]
  Giant foxtail plant response rating: 8
Giant foxtail; [6]
  Giant foxtail plant response rating: 10
Giant foxtail; Preemergence, Rate 250 g/ha
  Giant foxtail plant response rating (0 to 10 scale): 10
Giant foxtail; [7]
  Giant foxtail plant response rating: 10
Giant foxtail; [1]
  Plant response rating, Giant foxtail: 8
cocklebur; [2]
  Cocklebur plant response rating: 0
cocklebur; [3]
  Cocklebur plant response rating: 0
cocklebur; [4]
  Plant response rating, Cocklebur: 2
cocklebur; [5]
  Cocklebur plant response rating: 0
cocklebur; [6]
  Cocklebur plant response rating: 0
cocklebur; Preemergence, Rate 250 g/ha
  Cocklebur plant response rating (0 to 10 scale): 0
cocklebur; [7]
  Cocklebur plant response rating: 0
cocklebur; [1]
  Plant response rating, Cocklebur: 0
morningglory; [2]
  Morningglory plant response rating: 4
morningglory; [3]
  Morningglory plant response rating: 6
morningglory; [4]
  Plant response rating, Morningglory: 10
morningglory; [5]
  Morningglory plant response rating: 0
morningglory; [6]
  Morningglory plant response rating: 0
morningglory; Preemergence, Rate 250 g/ha
  Morningglory plant response rating (0 to 10 scale): 0
morningglory; [7]
  Morningglory plant response rating: 2
morningglory; [1]
  Plant response rating, Morningglory: 9
bedstraw; Rate 62 g/ha, scale 0 to 10 (0 no effect, 10 complete control)
  Bedstraw plant response rating: 0
bedstraw; Rate 125 g/ha, scale 0 to 10, 0 is no effect, 10 is complete control
  Bedstraw plant response rating: 0
bedstraw; Rate 250 g/ha
  Bedstraw plant response rating (0 to 10 scale): 0
bedstraw; [8]
  Bedstraw plant response rating: 0
Wild oat; [8]
  Plant response rating, Wild oats: 0
Wild oat; [5]
  Wild oats plant response rating: 0
Wild oat; [6]
  Wild oats plant response rating: 0
Wild oat; Preemergence, Rate 250 g/ha
  Wild oats plant response rating (0 to 10 scale): 2
Wild oat; [7]
  Wild oats plant response rating: 2
Wild oat; [9]
  Plant response rating, Wild oats: 0
corn; [2]
  Corn plant response rating: 0
corn; [3]
  Corn plant response rating: 0
corn; [4]
  Plant response rating, Corn: 0
corn; [5]
  Corn plant response rating: 0
corn; [6]
  Corn plant response rating: 0
corn; Preemergence, Rate 250 g/ha
  Corn plant response rating (0 to 10 scale): 0
corn; [7]
  Corn plant response rating: 3
corn; [1]
  Plant response rating, Corn: 0
